Tests used:
[1] = tested on: hTelo (unlabelled) (DNA, G4) GGGTTAGGGTTAGGGTTAGGG; assay: CD titration; conditions: K+ (50 mM KCl); 10 mM Tris-HCl, pH 7.4, 25 °C; 1-10 equiv compound
[2] = tested on: cKIT1 (unlabelled) (DNA, G4) GGGAGGGCGCTGGGAGGAGGG; assay: CD titration; conditions: K+ (50 mM KCl); 10 mM Tris-HCl, pH 7.4, 25 °C; 1-10 equiv compound

| SMILES | binding [1] | binding [2] |
| --- | --- | --- |
| CN1[C]N(CCCN2[C]N(C)c3c2c(=O)n(C)c(=O)n3C)c2c1n(C)c(=O)n(C)c2=O.CN1[C]N(CCCN2[C]N(C)c3c2c(=O)n(C)c(=O)n3C)c2c1n(C)c(=O)n(C)c2=O.[Au+].[Au+] | yes | yes |
| CN1[C]N(CCCN2[C]N(C)c3ccccc32)c2ccccc21.CN1[C]N(CCCN2[C]N(C)c3ccccc32)c2ccccc21.[Au+].[Au+] | yes | yes |
